Data set [1] concerns NCI-H358. Put plainly: Cytotoxicity against human NCI-H358 cells at 1 to 10 uM after 48 hrs measured during wound-healing assay. It counts as cell-based. To be noted: nci-h358, 48 h.
The subject of data set [2] is NCI-H358. The data set is described as follows: Antimigratory activity against human NCI-H358 cells at 10 uM after 48 hrs by wound-healing assay. It counts as functional, cell-based.
In data set [3] the test system is A549. The data set is described as follows: Cytotoxicity against human A549 cells at 1 to 10 uM after 72 hrs measured during wound-healing assay. It counts as cell-based. To be noted: a549, 72 h.
The test system of data set [4] is NCI-H358. Put plainly: Cytotoxicity against human NCI-H358 cells up to 30 uM after 48 hrs by WST-1 assay. To be noted: nci-h358, 48 h. It counts as cell-based. In general terms: Tetrazolium assays rely on reduction of a dye to a coloured formazan, in cell work by metabolically active cells.
In data set [5] the test system is NIH3T3. Put plainly: Cytotoxicity against mouse NIH/3T3 cells at 1 to 10 uM after 72 hrs measured during wound-healing assay. It counts as cell-based. The following applies: nih3t3, 72 h.
In data set [6] the test system is A549. Put plainly: Cytotoxicity against human A549 cells up to 30 uM after 48 hrs by WST-1 assay. It counts as cell-based. To be noted: a549, 48 h.
Data set [7] has as its system NIH3T3. The data set is described as follows: Cytotoxicity against mouse NIH/3T3 cells up to 30 uM after 48 hrs by WST-1 assay. The following applies: nih3t3, 48 h. It counts as cell-based.
The test system of data set [8] is NIH3T3. The data set is described as follows: Antimigratory activity against mouse NIH/3T3 cells at 10 uM after 72 hrs by wound-healing assay. It counts as ADME, cell-based. To be noted: nih3t3, 72 h.
Data set [9] deals with A549. Put plainly: Antimigratory activity against human A549 cells at 10 uM after 72 hrs by wound-healing assay. It counts as functional, cell-based.
Data set [10] deals with MCF7. The data set is described as follows: Cell cycle arrest in human MCF7 cells assessed as accumulation of cells at subG1 phase at 50 to 100 uM after 24 hrs by propidium iodide staining-based flow cytometric analysis. It counts as functional. For orientation: Flow cytometry measures light scatter and fluorescence of single cells or particles in a stream.
In data set [11] the test system is MCF7. Put plainly: Cell cycle arrest in human MCF7 cells assessed as cell death at 50 to 100 uM after 24 hrs by propidium iodide staining-based flow cytometric analysis. It counts as functional.
In data set [12] the test system is MCF7. Put plainly: Cell cycle arrest in human MCF7 cells assessed as accumulation of cells with 8N DNA content at 100 uM after 1 to 2 days by propidium iodide staining-based flow cytometric analysis relative to control. It counts as functional.
The subject of data set [13] is HUVEC. Put plainly: Cell cycle arrest in human HUVEC cells assessed as increase in cells at G2/M phase after 24 hrs by propidium iodide staining-based flow cytometric analysis. It counts as ADME.
Data set [14] has as its system MCF7. The data set is described as follows: Cell cycle arrest in human MCF7 cells assessed as increase in cells at G2/M phase after 48 hrs by propidium iodide staining-based flow cytometric analysis. It counts as functional.
Data set [15] concerns MCF7. Put plainly: Cell cycle arrest in human MCF7 cells assessed as decrease in cells at G0/G1 phase after 48 hrs by propidium iodide staining-based flow cytometric analysis. It counts as functional.
Data set [16] relates to HUVEC. Put plainly: Cell cycle arrest in human HUVEC cells assessed as cell death at 50 to 100 uM after 24 hrs by propidium iodide staining-based flow cytometric analysis. It counts as ADME.
For data set [17], the system named is HUVEC. Put plainly: Cell cycle arrest in human HUVEC cells assessed as accumulation of cells with 8N DNA content at 100 uM after 1 to 2 days by propidium iodide staining-based flow cytometric analysis relative to control. It counts as ADME.
Data set [18] relates to HUVEC. The data set is described as follows: Cell cycle arrest in human HUVEC cells assessed as decrease in cells at G0/G1 phase after 24 hrs by propidium iodide staining-based flow cytometric analysis. It counts as ADME.
For data set [19], the system named is HUVEC. Put plainly: Cell cycle arrest in human HUVEC cells assessed as cell detachment at 50 to 100 uM after 24 hrs by propidium iodide staining-based flow cytometric analysis. It counts as ADME.
Data set [20] deals with MCF7. The data set is described as follows: Cell cycle arrest in human MCF7 cells assessed as cell detachment at 50 to 100 uM after 24 hrs by propidium iodide staining-based flow cytometric analysis. It counts as functional.
Data set [21] deals with T1, Type-1 angiotensin II receptor (Homo sapiens, UniProt P30556).
T1 sequence (P30556 whole entry): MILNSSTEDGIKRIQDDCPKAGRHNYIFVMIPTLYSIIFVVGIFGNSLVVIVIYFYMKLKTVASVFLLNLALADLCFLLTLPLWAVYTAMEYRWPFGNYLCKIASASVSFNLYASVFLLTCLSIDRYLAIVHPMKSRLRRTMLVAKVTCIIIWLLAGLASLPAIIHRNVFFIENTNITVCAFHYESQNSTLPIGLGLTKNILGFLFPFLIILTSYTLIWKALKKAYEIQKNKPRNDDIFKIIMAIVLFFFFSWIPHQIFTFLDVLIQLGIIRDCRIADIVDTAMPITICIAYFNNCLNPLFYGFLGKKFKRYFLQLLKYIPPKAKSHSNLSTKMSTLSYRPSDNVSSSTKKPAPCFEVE
The data set is described as follows: (§1) Displacement of [125I-Sar1-Ile8]-Ang2 from human angiotensin 2 receptor type 1 receptor expressed in HEK293 cells after 1 hr by gamma counting analysis. It counts as cell-based. (In a radioligand displacement assay an active substance lowers the binding of a labelled ligand.)

Data set [22] has as its system HUVEC. The data set is described as follows: Cell cycle arrest in human HUVEC cells assessed as accumulation of cells at subG1 phase at 50 to 100 uM after 24 hrs by propidium iodide staining-based flow cytometric analysis. It counts as ADME.
Data set [23] addresses T2, Type-1 angiotensin II receptor (Homo sapiens) (UniProt P30556).
T2 sequence (whole entry): T1 sequence (P30556 whole entry)
Described as §1. It counts as cell-based.

Molecules are shown by their SMILES. Calls of active or inactive are those of the source. The calls are words filed in the database; no cut-off is given here.

In general, Ki refers to a measure of affinity in units of concentration, obtained from inhibition or displacement. A high value points to weaker binding.

`CCCCC1=N/C(=C\c2ccc(Br)cc2)C(=O)N1Cc1ccc(-c2ccccc2-c2nnn(C(c3ccccc3)(c3ccccc3)c3ccccc3)n2)cc1`: the Activity result in the data set with NCI-H358 [1], with A549 [3], in the data set with NCI-H358 [4], with NIH3T3 [5], with A549 [6] and in the data set with NIH3T3 [7] was “Non-Toxic” each time. Also, the result with NCI-H358 [2] was Active.

As to `CCCCC(=O)N(Cc1ccc(-c2ccccc2-c2nnn[nH]2)cc1)[C@H](C(=O)O)C(C)C`, the result with NCI-H358 [2] and in the data set on A549 [9] was Active. Besides, the Activity entry with NCI-H358 [4] is given as “Non-Toxic”; with NIH3T3 [8], “Toxic”; in the data set with A549 [6] it was “Non-Toxic”; in the data set with NIH3T3 [7], “Non-Toxic”.

Turning to `CCCCC1=N/C(=C\c2cccc(Br)c2)C(=O)N1Cc1ccc(-c2ccccc2-c2nnn(C(c3ccccc3)(c3ccccc3)c3ccccc3)n2)cc1`, the Activity entry with NCI-H358 [1], in the data set with A549 [3], with NCI-H358 [4], in the data set on NIH3T3 [5], with A549 [6] and in the data set on NIH3T3 [7] was “Non-Toxic” in each case. The outcome with NCI-H358 [2] and in the data set on A549 [9] was Active.

As for `CCCCC1=N/C(=C\c2ccc(Br)cc2)C(=O)N1Cc1ccc(-c2ccccc2C#N)cc1`, the result with MCF7 [10], with MCF7 [11], in the data set with NCI-H358 [2], in the data set with A549 [9] and in the data set with MCF7 [20] was Active. Also, the Activity in the data set with MCF7 [12] is more than 70%; in the data set with NCI-H358 [1] it was “Non-Toxic”; in the data set on HUVEC [13], “Dose-dependent effect”; in the data set on MCF7 [14], “Dose-dependent effect”; in the data set on A549 [3], “Non-Toxic”; with NCI-H358 [4], “Non-Toxic”. The Activity entry in the data set on MCF7 [15] was “Dose-dependent effect”; in the data set with HUVEC [16] it was “Toxic”; with HUVEC [17], 90%; in the data set on NIH3T3 [8], “Toxic”; in the data set on NIH3T3 [5], “Non-Toxic”; with HUVEC [18], “Dose-dependent effect”. The Activity entry is recorded as “Toxic” in the data set on HUVEC [19], “Non-Toxic” in the data set with A549 [6], “Non-Toxic” in the data set on NIH3T3 [7] and “Toxic” with HUVEC [22]. This molecule also came in with an inhibitory constant (Ki) in data set [21] of 24800 nM.

Take `CCCCC1=N/C(=C\c2ccc(Cl)cc2)C(=O)N1Cc1ccc(-c2ccccc2-c2nnn(C(c3ccccc3)(c3ccccc3)c3ccccc3)n2)cc1`: the Activity result with NCI-H358 [1], in the data set with A549 [3], in the data set with NCI-H358 [4], in the data set with NIH3T3 [5], in the data set on A549 [6] and in the data set on NIH3T3 [7] was “Non-Toxic” throughout.

Turning to `CCCCC1=N/C(=C\c2cccc(Cl)c2)C(=O)N1Cc1ccc(-c2ccccc2-c2nnn(C(c3ccccc3)(c3ccccc3)c3ccccc3)n2)cc1`, the Activity entry with NCI-H358 [1], in the data set on A549 [3], in the data set with NCI-H358 [4], with NIH3T3 [5], in the data set with A549 [6] and in the data set with NIH3T3 [7] was “Non-Toxic” each time. Besides, the outcome in the data set with A549 [9] was Active.

`CCOc1nc2cccc(C(=O)O)c2n1Cc1ccc(-c2ccccc2-c2nnn[nH]2)cc1` had a Ki in data set [21] of 10.4 nM.

Regarding `CCCCC1=N/C(=C\c2ccccc2Br)C(=O)N1Cc1ccc(-c2ccccc2-c2nnn(C(c3ccccc3)(c3ccccc3)c3ccccc3)n2)cc1`, the Activity entry is “Non-Toxic” with NCI-H358 [1]; “Non-Toxic” with A549 [3]; “Non-Toxic” with NCI-H358 [4]; “Toxic” with NIH3T3 [8]; “Non-Toxic” with NIH3T3 [5]; “Non-Toxic” in the data set with A549 [6]. In the data set with NIH3T3 [7], the Activity result is listed as “Non-Toxic”. The result with A549 [9] was Active. Besides, the inhibition result in [23] is “Dose-dependent effect”. In [21], affinity was put at a Ki of 317 nM.

The values above are taken from ChEMBL document CHEMBL4145475, “Integration of multi-scale molecular modeling approaches with experiments for the in silico guided design and discovery of novel hERG-Neutral antihypertensive oxazalone and imidazolone derivatives and analysis of their potential restrictive effects on cell proliferation” (Eur J Med Chem, 2018).
